Test results from patent US7763615B2, “Ecteinascidin analogs for use as antitumour agents” (priority 2001, dated 2010).

Columns and labels:
Assay type in all cases: cell-based
A549 = assay: cells; details: Homo sapiens, A549, 48 h, A549, 48 hours exposure, SRB; for GI50: read-out: GI50; for CC50: read-out: LC50 (the source's name); for IC (TGI): read-out: TGI
From the text: (§1) The finality of these assays is to interrupt the growth of a “in vitro” tumor cell culture by means of a continued exhibition of the cells to the sample to be testing.
(§2) A colorimetric type of assay, using sulphorhodamine B (SRB) reaction has been adapted for a quantitative measurement of cell growth and viability [following the technique described by Philip Skehan, et al. (1990), New colorimetric cytotoxicity assay for anticancer drug screening, J. Natl. Cancer Inst., 82:1107-1112]
(§3) This form of the assay employs 96 well cell culture microplates of 9 mm diameter (Faircloth, 1988; Mosmann, 1983). Most of the cell lines are obtained from American Type Culture Collection (ATCC) derived from different human cancer types.
(§4) Cells are maintained in RPMI 1640 10% FBS, supplemented with 0.1 g/l penicillin and 0.1 g/l streptomycin sulphate and then incubated at 37° C., 5% CO2 and 98% humidity. For the experiments, cells were harvested from subconfluent cultures using trypsin and resuspended in fresh medium before plating.
(§5) Cells are seeded in 96 well microtiter plates, at 5×10^3 cells per well in aliquots of 195 μl medium, and they are allowed to attach to the plate surface by growing in drug free medium for 18 hours. Afterward, samples are added in aliquots of 5 μl in a ranging from 10 to 10^−8 μg/ml, dissolved in DMSO/EtOH/PBS (0.5:0.5:99). After 48 hours exposure, the antitumor effect are measured by the SRB methodology: cells are fixed by adding 50 μl of cold 50% (wt/vol) trichloroacetic acid (TCA) and incubating for 60 minutes at 4° C. Plates are washed with deionized water and dried. One hundred μl of SRB solution (0.4% wt/vol in 1% acetic acid) is added to each microtiter well and incubated for 10 minutes at room temperature. Unbound SRB is removed by washing with 1% acetic acid. Plates are air dried and bound stain is solubilized with Tris buffer. Optical densities are read on a automated spectrophotometric plate reader at a single wavelength of 490 nm.
(§6) The values for mean+/− SD of data from triplicate wells are calculated. Some parameters for cellular responses can be calculated: GI=growth inhibition, TGI=total growth inhibition (cytostatic effect) and LC=cell killing (cytotoxic effect).

HT29 = assay: cells; details: Homo sapiens, HT-29, 48 h, HT29, 48 hours exposure, SRB; for CC50: read-out: LC50 (the source's name)
From the text: as §1, §2, §3, §4, §5, §6

H-MEC-1 = assay: Inhibition of cells growth by colorimetric assay (SRB), H-MEC-1; details: Homo sapiens, H-MEC-1, 48 hours exposure, SRB; for GI50 / IC (TGI): HMEC-1, 48 h; for CC50: HMEC-1, read-out: LC50 (the source's name)
From the text: as §1, §2, §3, §4, §5, §6

Structure (SMILES) | GI50 (A549) [nM] | CC50 (A549) [nM] | IC (TGI) (A549) [nM] | GI50 (HT29) [nM] | IC (TGI) (HT29) [nM] | CC50 (HT29) [nM] | GI50 (H-MEC-1) [nM] | IC (TGI) (H-MEC-1) [nM] | CC50 (H-MEC-1) [nM]
COc1c(C)cc2c(c1OC(=O)OC(C)(C)C)[C@@H]1C3[C@@H]4SC[C@]5(NCCc6c5[nH]c5ccccc65)C(=O)COC[C@@H](c5c6c(c(C)c(OC(=O)OC(C)(C)C)c54)OCO6)N3[C@@H](C#N)[C@H](C2)N1C (stereo partly drawn) [Compound 58] | 89.1 | 10800 | 1340 | 230 | 10800 | 10800 | 10.2 | 10800 | 10800
C=COC(=O)Oc1c(C)c2c(c3c1[C@H]1SC[C@]4(NCCc5c4[nH]c4ccccc54)C(=O)COC[C@@H]3N3C1[C@H]1c4c(cc(C)c(OC)c4O)C[C@@H]([C@@H]3C#N)N1C)OCO2 (stereo partly drawn) [Compound 59] | 2.66 | 4980 | 2260 | 3.8 | 18.4 | 12600 | 4 | 12.6 | 12600
CCCCCCCC(=O)Oc1c(C)c2c(c3c1[C@H]1SC[C@]4(NCCc5c4[nH]c4ccccc54)C(=O)COC[C@@H]3N3C1[C@H]1c4c(cc(C)c(OC)c4O)C[C@@H]([C@@H]3C#N)N1C)OCO2 (stereo partly drawn) [Compound 61] | 11800 | 11800 | 11800 | 11800 | 11800 | 11800 | 394 | 805 | 3400
CCCC(=O)Oc1c(C)c2c(c3c1[C@H]1SC[C@]4(NCCc5c4[nH]c4ccccc54)C(=O)COC[C@@H]3N3C1[C@H]1c4c(cc(C)c(OC)c4O)C[C@@H]([C@@H]3O)N1C)OCO2 (stereo partly drawn) [Compound 63] | 3.12 | 3030 | 9.53 | 3.88 | 12.8 | 12800 | 2.72 | 12.8 | 12800
C=CCOC(=O)Oc1c(C)c2c(c3c1[C@H]1SC[C@]4(NCCc5c4[nH]c4ccccc54)C(=O)COC[C@@H]3N3C1[C@H]1c4c(cc(C)c(OC)c4O)C[C@@H]([C@@H]3O)N1C)OCO2 (stereo partly drawn) [Compound 64] | 1.64 | 110 | 6.83 | 1.91 | 12.5 | 12500 | 0.31 | 12.5 | 12500
COc1c(C)cc2c(c1O)[C@@H]1C3[C@@H]4SC[C@]5(NCCc6c5[nH]c5ccccc65)C(=O)COC[C@@H](c5c6c(c(C)c(OC(=O)OC(C)(C)C)c54)OCO6)N3[C@@H](O)[C@H](C2)N1C (stereo partly drawn) [Compound 65] | 2.05 | 47.9 | 6.3 | 0.856 | 20.5 | 12300 | 0.613 | 43.5 | 12300
COc1c(C)cc2c(c1OC(C)(C)C)[C@@H]1C3[C@@H]4SC[C@]5(NCCc6c5[nH]c5ccccc65)C(=O)COC[C@@H](c5c6c(c(C)c(OC(=O)OC(C)(C)C)c54)OCO6)N3[C@@H](O)[C@H](C2)N1C (stereo partly drawn) [Compound 66] | 20.9 | 376 | 57.5 | 28 | 113 | 11000 | 20.7 | 80.4 | 11000
C=COC(=O)Oc1c(C)c2c(c3c1[C@H]1SC[C@]4(NCCc5c4[nH]c4ccccc54)C(=O)COC[C@@H]3N3C1[C@H]1c4c(cc(C)c(OC)c4O)C[C@@H]([C@@H]3O)N1C)OCO2 (stereo partly drawn) [Compound 67] | 0.455 | 128 | 2.86 | 1.9 | 128 | 12800 | 0.521 | 128 | 12800
